Data published in ChEMBL document CHEMBL3739304, “Non-nucleoside anti-HBV agents: advances in structural optimization and mechanism of action investigations” (Medchemcomm, 2015).
Values belong to the compound of their own block, whether it stands above or below them.

What was measured:
Hepatitis B virus [1] = test: Inhibition of HBV DNA replication; assay type: functional, organism-based
[2] = Selectivity index, ratio of cytotoxicity against human HepG2.2.15 cells to IC50 for HBV DNA replication in HepG2.2.15 cells; assay type: toxicity, cell-based; settings: read-out: Selectivity Index
Hepatitis B virus [3] = test: Inhibition of HBV DNA replication in HepG2.2.15 cells; assay type: functional, organism-based
Hepatitis B virus [4] = test: Inhibition of HBV DNA replication in HepDES19 cells after 48 hrs by dot blot analysis; assay type: functional, organism-based; settings: HepDES19, 48 h
[5] = Cytotoxicity against mouse AML-12 cells after 48 hrs by MTT assay; assay type: cell-based
[6] = Cytotoxicity against human HepDES19 cells after 48 hrs by MTT assay; assay type: cell-based
Hepatitis B virus [7] = test: Inhibition of HBV DNA replication in AML-12 cells after 48 hrs by dot blot analysis; assay type: functional, organism-based; settings: AML12, 48 h
[8] = Cytotoxicity against human HuH7 cells; assay type: cell-based, Huh-7
Hepatitis B virus [9] = test: Inhibition of HBV in Huh7 cells by ELISA; assay type: functional, organism-based; settings: Huh-7
Hepatitis B virus [10] = test: Inhibition of HBV virions secretion; assay type: functional, organism-based
Hepatitis B virus [11] = test: Inhibition of HBV antigen secretion; assay type: functional, organism-based
[12] = Cytotoxicity against human HepDE19 cells after 7 days by MTT assay; assay type: cell-based
Hepatitis B virus [13] = test: Inhibition of HBV antigen secretion in HepDE19 cell after 7 days by ELISA; assay type: functional, organism-based; settings: HepDE19, 168 h
[14] = Ratio of CC50 for human HepG2.2.15 cells to IC50 for HBV DNA replication in HepG2.2.15 cells; parameters: species or system HepG2 2.2.15
[15] = Cytotoxicity against human HepG2.2.15 cells assessed as cell viability; assay type: cell-based, HepG2 2.2.15; settings: read-out: TC50 (the source's name)
[16] = Cytotoxicity against human HepAD38 cells; assay type: cell-based; settings: read-out: TC50 (the source's name)
Hepatitis B virus [17] = test: Inhibition of HBV DNA replication in HepAD38 cells; assay type: functional, organism-based
[18] = Selectivity index, ratio of cytotoxicity against human HepG2.2.15 cells to IC50 for HBV antigen secretion in HepG2.2.15 cells; assay type: toxicity, cell-based; settings: read-out: Selectivity Index
Hepatitis B virus [19] = test: Inhibition of HBV antigen secretion in HepG2.2.15 cells; assay type: functional, organism-based
Hepatitis B virus [20] = test: Inhibition of HBV DNA replication in HepG2 cells by southern blot analysis; assay type: functional, organism-based

IC50 (Hepatitis B virus [1]): 0.14 µM
Structure (SMILES): CC(C)Cc1sc(-c2nccs2)nc1C(=O)NCc1ccc(F)cc1

IC50 (Hepatitis B virus [3]): 36.8 µM
Structure (SMILES): CCOC(=O)c1cc2cc(OC)c(O)c(CN3CCCC3)c2nc1CSc1ccccc1
selectivity ratio [2]: 2.8

EC50 (Hepatitis B virus [4]): 0.1 µM | EC50 (Hepatitis B virus [7]): 0.3 µM
Structure (SMILES): CCC(C)NS(=O)(=O)c1ccc(F)c(C(=O)NCc2ccc(F)c(F)c2)c1 (stereo unspecified)
CC50 at 48 h [5]: > 50 µM | CC50 at 48 h [6]: > 50 µM

EC50 (Hepatitis B virus [9]): 0.12 µM
Structure (SMILES): Cc1cc(C)n2[nH]c(=S)nc2n1
CC50 [8]: > 50 µM

EC50 (Hepatitis B virus [10]): 0.6 µM | EC50 (Hepatitis B virus [11]): 1.5 µM
Structure (SMILES): Clc1cc2nc(N3CCN(c4ccccn4)CC3)[nH]c2cc1Cl

EC50 (Hepatitis B virus [13]): 0.35 µM
Structure (SMILES): Cc1nc2cc(NC(=O)c3ccc(S(=O)(=O)N(C)Cc4ccccc4)cc3)ccc2s1
CC50 at 168 h [12]: > 2.57 µM

IC50 (Hepatitis B virus [3]): 1.7 µM
Structure (SMILES): COc1cc2nc3c(cc2c(Cn2ccnc2C)c1O)CSc1cc(F)ccc1-3
selectivity ratio [2]: 60.3

IC50 (Hepatitis B virus [3]): 1.1 µM
Structure (SMILES): CN(C)C(=O)c1ccc2c(c1)nc(-c1nccs1)n2C
Ratio CC50/IC50 [14]: >90

EC50 (Hepatitis B virus [4]): 0.14 µM | EC50 (Hepatitis B virus [7]): 0.39 µM
Structure (SMILES): O=C(NCc1ccc(F)c(F)c1)c1cc(S(=O)(=O)NC2CCCC2)ccc1F
CC50 at 48 h [5]: > 50 µM | CC50 at 48 h [6]: > 50 µM

EC50 (Hepatitis B virus [4]): 1.6 µM | EC50 (Hepatitis B virus [7]): 1.7 µM
Structure (SMILES): O=C(NCc1ccccc1)c1ccc(Cl)c(S(=O)(=O)N2CCCCCC2)c1
CC50 at 48 h [5]: > 50 µM | CC50 at 48 h [6]: > 50 µM

IC50 (Hepatitis B virus [3]): 0.15 µM
Structure (SMILES): CCOC(=O)C1=C(C)NC(c2ncccc2F)=NC1c1ccc(F)cc1Cl (stereo unspecified)
CC50 [15]: 50 µM

EC50 (Hepatitis B virus [17]): 1.2 µM | EC90 (Hepatitis B virus [17]): 13 µM
Structure (SMILES): O=C(N/C(C(=O)N1CCCCC1)=C(/Cl)c1ccccc1)c1ccccc1
CC50 [16]: > 81 µM

IC50 (Hepatitis B virus [3]): 0.03 µM
Structure (SMILES): CCOC(=O)C1=C(C)NC(c2nccs2)=N[C@H]1c1ccc(F)cc1Cl
CC50 [15]: 25 µM

EC50 (Hepatitis B virus [17]): 0.13 µM | EC90 (Hepatitis B virus [17]): 0.92 µM
Structure (SMILES): COc1ccccc1/C(Br)=C(\NC(=O)c1ccc([N+](=O)[O-])cc1)C(=O)N1CCCCC1
CC50 [16]: > 61 µM

IC50 (Hepatitis B virus [11]): 5 µM | IC50 (Hepatitis B virus [1]): 30 µM
Structure (SMILES): CCCCC/N=C(\c1ccc(=O)n(CCCCC)c1)c1ccc(OC)cc1O

IC50 (Hepatitis B virus [19]): 14.2 µM | IC50 (Hepatitis B virus [3]): 2.6 µM
Structure (SMILES): CCOC(=O)c1cc2cc(OC)c(O)c(CN3C=NCC3)c2nc1C[S+]([O-])c1ccc(F)c(F)c1 (stereo unspecified)
selectivity ratio [2]: 61.6 | selectivity ratio [18]: 11.3

EC50 (Hepatitis B virus [13]): 4.55 µM
Structure (SMILES): O=C(CN(c1cc(C(F)(F)F)ccc1Cl)S(=O)(=O)c1ccccc1)NCc1ccncc1
CC50 at 168 h [12]: > 50 µM

IC50 (Hepatitis B virus [20]): 0.012 µM
Structure (SMILES): CCOC(=O)C1=C(CN2CCOCC2)NC(c2nccs2)=NC1c1ccc(F)cc1Br (stereo unspecified)

EC50 (Hepatitis B virus [9]): 5.4 µM
Structure (SMILES): O=C1OC(OCc2ccccc2)=N/C1=C\c1ccccc1
CC50 [8]: > 50 µM
